According to ChEMBL document CHEMBL1201862, “PubChem BioAssay data set” (2004):
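Briefly, cells in 96-well plates were exposed to five compound concentrations for 48 h, and endpoints were estimated by linear interpolation. The concentration for 50% growth inhibition is given as GI50.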 Active and inactive are the calls of the source. Cut-off read from the data, not from the text of the source: active = GI50 up to about 1.1 µM and inactive = higher.

Assays:
Test in all cases: DTP human tumour cell line panel, 48 h
SK-MEL-28 = system: SK-MEL-28
RPMI-8226 = system: RPMI-8226
KM12 = system: KM12
M14 = system: M14
UACC-257 = system: UACC-257
786-0 = system: 786-0
SF-268 = system: SF-268
HCC 2998 = system: HCC 2998
TK-10 = system: TK-10
OVCAR-5 = system: OVCAR-5
OVCAR-8 = system: OVCAR-8
COLO 205 = system: COLO 205
SNB-75 = system: SNB-75
SW-620 = system: SW-620
SNB-19 = system: SNB-19

Measured: GI50

O=C(CSc1nnc(Cc2ccccc2)o1)Nc1ccccc1
inactive: SK-MEL-28 > 100 µM | RPMI-8226 > 100 µM | KM12 > 100 µM | M14 > 100 µM | UACC-257 > 100 µM | 786-0 > 100 µM | SF-268 > 100 µM | HCC 2998 > 100 µM | TK-10 > 100 µM | OVCAR-5 > 100 µM | OVCAR-8 > 100 µM | COLO 205 > 100 µM | SNB-75 > 100 µM

C=C1CCC2(C(C)=O)COC1(C)O2 (configuration not stated)
inactive: SK-MEL-28 > 100 µM | RPMI-8226 > 100 µM | KM12 > 100 µM | M14 > 100 µM | SW-620 > 100 µM | SNB-19 > 100 µM | UACC-257 > 100 µM | 786-0 > 100 µM | TK-10 > 100 µM | OVCAR-8 > 100 µM | COLO 205 > 100 µM | SNB-75 > 100 µM

O=C(c1ccccc1)c1ccc(OCCOc2ccc(Nc3ccccc3)cc2)cc1
inactive: SK-MEL-28 73.3 µM | KM12 > 100 µM | M14 49.5 µM | SW-620 > 100 µM | SNB-19 27.7 µM | UACC-257 65.8 µM | 786-0 25 µM | SF-268 27.3 µM | HCC 2998 > 100 µM | TK-10 28.6 µM | OVCAR-5 > 100 µM | OVCAR-8 32.4 µM | COLO 205 > 100 µM | SNB-75 15.6 µM

O=C1c2ccccc2C(=O)C12CCc1ccccc12
inactive: SK-MEL-28 > 100 µM | M14 > 100 µM | SW-620 > 100 µM | 786-0 > 100 µM | SF-268 > 100 µM | HCC 2998 > 100 µM | TK-10 > 100 µM | OVCAR-8 > 100 µM | COLO 205 > 100 µM | SNB-75 40.3 µM

NC(=O)CCC(NC(=O)Cc1ccccc1)C(=O)O (configuration not stated)
inactive: SK-MEL-28 1160 µM | RPMI-8226 1030 µM | KM12 > 2470 µM | M14 > 2470 µM | SW-620 > 2470 µM | SNB-19 > 2470 µM | 786-0 > 2470 µM | SF-268 1420 µM | HCC 2998 > 2470 µM | TK-10 2120 µM | OVCAR-5 > 2470 µM | OVCAR-8 > 2470 µM | COLO 205 > 2470 µM | SNB-75 724 µM

C/C(CCc1ccccc1)=N\NC(N)=S
inactive: SK-MEL-28 > 100 µM | RPMI-8226 27.3 µM | KM12 > 100 µM | M14 > 100 µM | SW-620 > 100 µM | UACC-257 > 100 µM | 786-0 > 100 µM | SF-268 > 100 µM | HCC 2998 > 100 µM | TK-10 > 100 µM | OVCAR-5 > 100 µM | OVCAR-8 > 100 µM | COLO 205 > 100 µM | SNB-75 76.4 µM

O=c1ncccn1C1C=C(CO)C(O)C1O (configuration not stated)
inactive: SK-MEL-28 > 50 µM | RPMI-8226 > 50 µM | KM12 > 50 µM | M14 > 50 µM | SW-620 > 50 µM | SNB-19 > 50 µM | UACC-257 > 50 µM | 786-0 > 50 µM | SF-268 > 50 µM | HCC 2998 > 50 µM | TK-10 > 50 µM | OVCAR-5 > 50 µM | COLO 205 > 50 µM

O=C(c1nc2ccccc2nc1O)C(O)c1ccccc1 (configuration not stated)
inactive: SK-MEL-28 29.8 µM | RPMI-8226 53.5 µM | KM12 54.6 µM | M14 > 100 µM | SW-620 86.9 µM | SNB-19 > 100 µM | UACC-257 > 100 µM | 786-0 > 100 µM | SF-268 86.7 µM | HCC 2998 53.7 µM | TK-10 > 100 µM | OVCAR-5 > 100 µM | OVCAR-8 > 100 µM | COLO 205 > 100 µM

CC(C)CN1CC(C)C(=O)NC1=O (configuration not stated)
inactive: SK-MEL-28 > 100 µM | KM12 > 100 µM | SW-620 > 100 µM | SNB-19 > 100 µM | UACC-257 > 100 µM | 786-0 > 100 µM | SF-268 > 100 µM | TK-10 > 100 µM | OVCAR-5 > 100 µM | OVCAR-8 > 100 µM | COLO 205 > 100 µM

Cc1ccc(/C=C/C(=O)c2sc(-c3nc(C)c(C(=O)/C=C/c4ccc(C)cc4)s3)nc2C)cc1
inactive: SK-MEL-28 > 100 µM | RPMI-8226 > 100 µM | KM12 > 100 µM | SW-620 > 100 µM | UACC-257 > 100 µM | 786-0 > 100 µM | SF-268 > 100 µM | HCC 2998 > 100 µM | TK-10 > 100 µM | OVCAR-5 > 100 µM | OVCAR-8 > 100 µM | COLO 205 > 100 µM | SNB-75 86.5 µM

COc1c(CC(C)=O)c2ccccc2n1C(C)=O
inactive: SK-MEL-28 > 100 µM | RPMI-8226 > 100 µM | KM12 > 100 µM | M14 > 100 µM | SW-620 > 100 µM | SNB-19 > 100 µM | UACC-257 > 100 µM | 786-0 > 100 µM | HCC 2998 > 100 µM | OVCAR-8 > 100 µM | COLO 205 > 100 µM | SNB-75 > 100 µM

C/C(CC(=O)Nc1cccc(Cl)c1C)=N\NC(N)=S
inactive: SK-MEL-28 > 100 µM | RPMI-8226 > 100 µM | KM12 > 100 µM | M14 > 100 µM | SW-620 > 100 µM | UACC-257 > 100 µM | 786-0 > 100 µM | SF-268 > 100 µM | HCC 2998 > 100 µM | TK-10 > 100 µM | OVCAR-5 > 100 µM | OVCAR-8 > 100 µM | COLO 205 > 100 µM | SNB-75 > 100 µM

CCOP12(OCC)NC(=O)OC1(C(F)(F)F)c1ccccc1O2 (configuration not stated)
inactive: SK-MEL-28 > 100 µM | KM12 > 100 µM | M14 > 100 µM | SNB-19 > 100 µM | UACC-257 > 100 µM | 786-0 > 100 µM | SF-268 > 100 µM | TK-10 > 100 µM | OVCAR-8 > 100 µM | SNB-75 82.8 µM

Cc1ccc(NC(=O)CC2C(=O)Nc3ccccc3S2(=O)=O)c(C)c1 (configuration not stated)
inactive: SK-MEL-28 17 µM | RPMI-8226 15.2 µM | M14 11.2 µM | SW-620 5.21 µM | SNB-19 14 µM | UACC-257 21.6 µM | 786-0 18.3 µM | SF-268 20.3 µM | HCC 2998 13.4 µM | TK-10 25.9 µM | OVCAR-5 24.7 µM | OVCAR-8 18.2 µM | SNB-75 15.2 µM

O=C1C(c2ccc(Cl)cc2)=[N+]([O-])c2ccccc21
inactive: SK-MEL-28 14.9 µM | RPMI-8226 14.9 µM | KM12 15.2 µM | M14 14.2 µM | SW-620 39.7 µM | SNB-19 23.3 µM | UACC-257 16 µM | 786-0 16.9 µM | SF-268 15.4 µM | HCC 2998 > 100 µM | TK-10 16.3 µM | OVCAR-5 22.9 µM | OVCAR-8 10.7 µM | COLO 205 17.7 µM | SNB-75 21.4 µM
